The results in this text go back to PubChem BioAssay AID1645868 (Buhrlage Lab, Dana-Farber Cancer Institute and Novartis …, 2021).

Each structure is given as a SMILES string. The source made the active and inactive calls.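 How the source made its calls: active means maximal percent inhibition of the deubiquitinase OTUD3 of at least 30% across the tested doses; inactive means the rest.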 Some results are limits rather than exact numbers.

Chain of OTU domain-containing protein 3 (Homo sapiens) (Q5T2D3 whole entry, looked up, the tested form may be a part): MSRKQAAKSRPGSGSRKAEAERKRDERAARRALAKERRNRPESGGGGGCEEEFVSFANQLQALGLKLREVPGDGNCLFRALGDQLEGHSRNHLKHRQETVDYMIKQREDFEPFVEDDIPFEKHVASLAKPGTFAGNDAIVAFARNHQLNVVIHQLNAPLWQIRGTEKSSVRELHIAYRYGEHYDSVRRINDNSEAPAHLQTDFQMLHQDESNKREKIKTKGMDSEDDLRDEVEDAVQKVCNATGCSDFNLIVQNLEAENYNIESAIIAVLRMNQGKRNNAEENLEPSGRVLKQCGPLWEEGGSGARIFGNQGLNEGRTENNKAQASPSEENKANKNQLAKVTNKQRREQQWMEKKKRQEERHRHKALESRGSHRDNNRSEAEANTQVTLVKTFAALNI

The assay concerns the target OTU domain-containing protein 3 (Homo sapiens) (UniProt Q5T2D3). Nature of the assay: Validation of screening hits, potency titration, in vitro enzymatic, OTU domain-containing protein 3 DUB inhibitors (AID 1645868). Particulars: purified OTUD3, ubiquitin-rhodamine cleavage fluorescence, 2 h.
For the compound `CC[C@@]1(O)C[C@H](OC2CC(N(C)C)C(OC3CC(O)C(OC4CCC(=O)C(C)O4)C(C)O3)C(C)O2)c2c(cc3c(c2O)C(=O)c2c(O)ccc(O)c2C3=O)[C@H]1C(=O)OC` (some centres not stated), the IC50 is > 5 µM (inactive).

In the case of `CN1C(=O)[C@@]23C[C@]4([C@@]56C[C@]78SS[C@](CO)(C(=O)N7[C@@H]5Nc5ccccc56)N(C)C8=O)c5ccccc5N[C@@H]4N2C(=O)[C@]1(CO)SS3`, the IC50 is > 50 µM (inactive).

Turning to `Cc1ncncc1C(=O)N1CCCC(C)(c2ncc(Cc3cccc(F)c3)o2)C1` (configuration not stated), the IC50 is > 50 µM (inactive).

With `Cc1c(-c2ccccc2)oc2c(C(=O)OCC(=O)Nc3ccccc3F)cccc2c1=O`, the IC50 was > 50 µM (inactive).

For `Cc1ccc(Nc2nc(NCCc3ccccc3)nc3c2cnn3C)cc1`, the IC50 was > 50 µM (inactive).

Regarding `COc1cccc(N2CCN(C(=O)C3CCN(c4nc(NC(C)=O)ns4)CC3)CC2)c1`, the IC50 is > 50 µM (inactive).

As to `COc1ccc(C(=O)Nc2ccc3c(c2)Sc2ncccc2C(=O)N3C)cn1`, the IC50 is > 50 µM (inactive).

Consider `Cc1cccc(NC(=O)Cn2c(-c3cnccn3)nc(C)c(C)c2=O)c1C`, for which the IC50 was > 50 µM (inactive).

With `CCOc1ccc(NC(=O)Cn2c(=O)n(CCCCCC(=O)NCc3ccc(F)cc3)c(=O)c3sccc32)cc1`, the IC50 is 2.67 µM.

Turning to `CN1C(=O)COc2cc(-c3noc(C(=O)NC4CCCCCC4)n3)ccc21`, the IC50 was > 50 µM (inactive).

Consider `Cc1ccccc1-c1nnc(-c2ccc(C(=O)NCc3ccccc3F)cc2)o1`, for which the IC50 is 31.6 µM.

For `O=C(CCCn1c(=O)c2ccccc2n(CC(=O)NCc2ccccc2Cl)c1=O)NCc1ccc2c(c1)OCO2`, the IC50 is 3.31 µM.

As for `CN=C(N)NCCC/C=C/CCCC(C)CC(C)C1OC(=O)/C=C/C(C)C(O)CC(O)C(C)C(O)CCC(C)C(O)CC2(O)OC(CC(OC(=O)CC(=O)O)CC(O)CC(O)C(C)C(O)/C=C/C1C)CC(O)C2O` (configuration not stated), the IC50 was > 50 µM (inactive).

As for `COc1cccc(NC(=O)Nc2ccc(CCc3nc4ccccc4[nH]3)cc2)c1`, the IC50 was 48.5 µM.

For `O=C(OCCCN1C(=O)c2cccc3c(N4CCCCC4)ccc(c23)C1=O)c1ccccn1`, the IC50 is > 50 µM (inactive).

On to `COc1cc(NC(=O)Cn2nc(-c3ccc(F)cc3)ccc2=O)ccc1-n1cnnn1`, for which the concentration for half-maximal inhibition (IC50) was 5.56 µM.

On to `COc1ccc(CC(=O)Nc2cccc(-c3nc4ncccc4o3)c2)cc1OC`, for which the IC50 is > 50 µM (inactive).

In the case of `COc1ccc2nc(NC(=O)C(CC(C)C)NS(=O)(=O)c3ccc4c(c3)CCN4C(C)=O)sc2c1` (configuration not stated), the IC50 is 26.4 µM.

As for `Clc1cncc(Oc2nc(-c3cccnc3)nc3ccccc23)c1`, the IC50 is > 50 µM (inactive).

On to `Cc1cnc(CN2CCCC(c3ccc4cn[nH]c4n3)C2)cn1` (configuration not stated), for which the IC50 was > 50 µM (inactive).

As to `COc1cc2c(c3oc4cccc(O)c4c(=O)c13)C1C=COC1O2` (configuration not stated), the IC50 is > 50 µM (inactive).

Turning to `COc1ccccc1CNC(=O)CCCCn1c(=O)c2ccccc2n(Cc2ccccc2C#N)c1=O`, the IC50 was 16.9 µM.

As to `Cn1c(CCNC(=O)c2[nH]nc3c2CCc2ccccc2-3)nc2ccccc21`, the IC50 was 29.3 µM.

For the compound `N#Cc1ccc(Cl)cc1NC(=O)COc1cccnc1[N+](=O)[O-]`, the IC50 was > 50 µM (inactive).

For `O=C(NC1CCN(Cc2ccccc2)CC1)c1[nH]nc2c1CCc1ccccc1-2`, the IC50 was > 50 µM (inactive).

On to `COc1ccc(-c2nc3n(n2)C(CC(=O)Nc2cccc4ccccc24)C(=O)N3)cc1` (configuration not stated), for which the IC50 is 13 µM.

For `Cc1sc(NC(=O)CNc2ccccc2)nc1-c1ccc2c(c1)CCN2C(=O)C(C)C`, the IC50 was > 50 µM (inactive).

With `Cc1cc(Cl)ccc1Nc1nc(Nc2cccc(F)c2)nc2nccnc12`, the IC50 was > 50 µM (inactive).

With `N=C1C(c2nc3ccccc3s2)=C(O)CN1Cc1ccc(F)cc1`, the IC50 was > 50 µM (inactive).

Turning to `Cc1cc(C)c(NC(=O)Cn2c(=O)n(CCC(=O)NCc3ccc4c(c3)OCO4)c(=O)c3sccc32)c(C)c1`, the IC50 was 12.6 µM.

Turning to `COc1cc(NC(=O)c2cc(-c3ccncc3)n(-c3ccc(F)cc3)n2)cc(OC)c1`, the IC50 is > 50 µM (inactive).

On to `COc1ccccc1CNC(=O)c1ccc(CSc2nc3ccncc3n2Cc2ccccc2)cc1`, for which the IC50 was > 50 µM (inactive).

For `O=C(COc1nc2ccccc2nc1N1CCOCC1)NC(c1ccccc1)c1ccccc1`, the IC50 is > 50 µM (inactive).

On to `CC(=O)C1=C(O)[C@]2(O)C(=O)c3c(c(C)c4ccc(C)c(O)c4c3O)C[C@H]2[C@@H](N)C1=O`, for which the IC50 is 2.13 µM.

As for `O=C(Nc1nnc(C2CC2)s1)c1ccc(OCC2CCCO2)cc1` (configuration not stated), the IC50 was > 50 µM (inactive).

Regarding `Cc1ccc2nnc(-c3ccccc3)c(C(=O)N3CCN(c4ccccn4)CC3)c2c1`, the IC50 was > 50 µM (inactive).

Take `CC(c1ccccc1)n1c(-c2ccc(F)cc2)nc2c(c(=O)c3ccccc3n2C)c1=O` (configuration not stated): the IC50 is 4.65 µM.

For the compound `O=C(c1cnccn1)N1CCc2[nH]c3ccc(F)cc3c2C1`, the IC50 is > 50 µM (inactive).

As for `CCc1nc(-c2cccc(NC(=O)c3ccc(C#N)cc3F)c2)no1`, the IC50 was > 50 µM (inactive).

As for `O=[N+]([O-])c1ccc(NCC2COc3ccccc3O2)c(Cl)c1` (configuration not stated), the IC50 is > 50 µM (inactive).

Regarding `COc1ccc(CNC(=O)c2[nH]nc3c2CCc2ccccc2-3)cc1`, the IC50 is > 50 µM (inactive).

With `Cc1ccc(NC(=O)c2ccc3nn(CC(=O)Nc4ccc(F)cc4F)c(=O)n3c2)cc1`, the IC50 is > 50 µM (inactive).

Turning to `O=C(NCc1ccncc1)C1CCN(c2cncnc2N2CCCCC2)CC1`, the IC50 was > 50 µM (inactive).

Take `Cc1ccc([N+](=O)[O-])cc1S(=O)(=O)Nc1cc2sc(=O)oc2c2ccccc12`: the IC50 is 35.9 µM.

On to `COc1ccc(CCC(=O)Nc2ccc3c(c2)Sc2ncccc2C(=O)N3C)cc1`, for which the IC50 was > 50 µM (inactive).

Consider `Cc1cc(NC(=O)c2cc(-c3cccnc3)n[nH]2)ccc1Br`, for which the IC50 is 12.2 µM.

As to `CCCCCCCc1cc(O)cc(O)c1`, the IC50 is > 50 µM (inactive).

In the case of `O=C(Cn1nc2ccc(C(=O)NCc3ccccc3)cn2c1=O)Nc1ccc2c(c1)OCO2`, the IC50 is 38.4 µM.

On to `Cn1cc(-c2cnc(-c3cccc(F)c3)nc2)cc1C(=O)NCc1cccnc1`, for which the IC50 was > 50 µM (inactive).

Consider `Cc1cccc(Cl)c1NC(=O)Nc1ccc(NC(=O)c2ccccc2O)cc1`, for which the IC50 is 47.8 µM.

Turning to `O=C(Nc1ccc(Oc2cccc3cccnc23)cc1)c1cccs1`, the IC50 is > 50 µM (inactive).

In the case of `CCN(c1ccccc1)S(=O)(=O)c1ccc(C(=O)Nc2nc3ccc(F)cc3s2)cc1`, the IC50 is > 50 µM (inactive).

Turning to `CC(=O)Nc1ccc(O)c(-c2nc3cc(C)ccc3o2)c1`, the IC50 is > 50 µM (inactive).

Regarding `O=C(Nc1cc(Cl)ccc1-n1cncn1)c1ccc(S(=O)(=O)N2CCCC2)cc1`, the IC50 is > 50 µM (inactive).

Regarding `CC(C)CCn1c(=O)c2ccccc2n2c(CCC(=O)NC3CCCCCC3)nnc12`, the IC50 was > 50 µM (inactive).

`O=C(Nc1cccc(F)c1)C1CCCN(S(=O)(=O)N2CCCCCC2)C1` (configuration not stated): the IC50 is > 50 µM (inactive).

Consider `Cc1nc(-c2cccc(NC(=O)c3ccccc3Cl)c2)no1`, for which the IC50 is > 50 µM (inactive).

For the compound `O=C(NCc1ccccc1Cl)C1CCCN(c2nc3ccsc3c(=O)s2)C1` (configuration not stated), the IC50 was > 50 µM (inactive).

Regarding `COc1cc2c(cc1OC)-c1cc(NCc3cc(OC)c(OC)c(OC)c3)nc(=O)n1CC2`, the IC50 is > 50 µM (inactive).

For `Cc1ccc(C)c(-n2c(C)cc(/C=C3/C(=N)N4C(c5ccc(F)cc5)=CSC4=NC3=O)c2C)c1`, the IC50 was > 50 µM (inactive).

In the case of `CC(=O)c1cccc(NC(=O)c2ccc(-c3csc(C)n3)cc2)c1`, the IC50 is > 50 µM (inactive).

Take `COc1ccc(C(=O)Nc2ccc(S(=O)(=O)N3CCCCC3)cc2)cc1`: the IC50 is > 50 µM (inactive).

For `Cc1ccc(C(=O)NCc2ccc(C(=O)Nc3cccc(C)c3)o2)cc1`, the IC50 is > 50 µM (inactive).

As to `O=C(NC1CCN(Cc2ccccc2)CC1)c1[nH]nc2c1COc1ccccc1-2`, the IC50 was > 50 µM (inactive).

As for `COc1ccc(CNC(=O)CN2C(=O)CC(c3ccccc3)=Nc3ccccc32)cc1`, the IC50 is 16.4 µM.

Consider `Cc1nc(N2CCCC2)ncc1C(=O)Nc1ccc(F)c(F)c1`, for which the IC50 is > 50 µM (inactive).

As for `COCCCNC(=O)c1ccc(Cn2c(=O)c3ccccc3n(CC(=O)NC3CCCCC3)c2=O)cc1`, the IC50 was 32.3 µM.

Turning to `COc1ccccc1NS(=O)(=O)c1ccc2oc(SCC(=O)c3ccccc3)nc2c1`, the IC50 is > 50 µM (inactive).

With `Cc1ccc(-c2ncc(C(=O)NCc3cccc(C)c3)c(-c3ccncc3)n2)cc1`, the IC50 was > 50 µM (inactive).

Take `COc1ccc2c(C)c(CC(=O)N3CCC[C@H]3C(=O)O)c(=O)oc2c1C`: the IC50 is > 50 µM (inactive).

Turning to `COc1ccc2nc(Nc3ncc4c(n3)CCCC4=O)nc(C)c2c1`, the IC50 is > 50 µM (inactive).

As for `COc1cccc(-c2nc3cnccn3c2NCc2ccc3c(c2)OCO3)c1`, the IC50 is > 50 µM (inactive).

Regarding `COc1ccc(Nc2nc3c(S(=O)(=O)c4ccc(C)cc4)nnn3c3ccsc23)c(OC)c1`, the IC50 was 40.1 µM.

For the compound `O=S(=O)(Cc1nnc(-c2ccccc2C(F)(F)F)o1)c1ccc(Cl)cc1`, the IC50 was > 50 µM (inactive).

Turning to `O=C(/C=C/c1ccc(F)cc1)N1CCc2ccccc2C1`, the IC50 was > 50 µM (inactive).

As for `CCNc1nc(SCC(C)=O)nc2sc3c(c12)CCC(C)C3` (configuration not stated), the IC50 is > 50 µM (inactive).

For `O=C(NCc1ccccc1)c1ccc2c(=O)n(-c3ccccc3)c(=O)[nH]c2c1`, the IC50 was 38.1 µM.

For the compound `CCOc1ccc(S(=O)(=O)Nc2ccc[nH]c2=O)cc1`, the IC50 is > 50 µM (inactive).

Consider `Cc1cc(=O)n(CC(=O)NCc2ccccc2F)c2c1c(C)nn2-c1ccccc1`, for which the IC50 is 28.6 µM.

For `O=C(Nc1cc(-c2cccnc2)no1)c1ccc(F)c(F)c1`, the IC50 was 31.4 µM.

For `CC(C)Cc1nc2sc3c(NCCN4CCOCC4)ncnc3c2c2c1CCC2`, the IC50 was > 50 µM (inactive).

`Cc1ccc(-n2nc(C(=O)Nc3ccc(C)cn3)c3ncn(C)c(=O)c32)cc1`: the IC50 was 2.1 µM.
